In patent US20250082633A1, “COMPOUNDS AND METHODS FOR MODULATING SPLICING” (REMIX THERAPEUTICS INC., priority 2021, published 2025):
Where a name gives a salt, the structure may show the parent alone. Read-outs that look alike come from different tables or passages of the source.

How the values were obtained:
Target C = experiment: RT-qPCR splicing assay, gene panel, Target C canonical junction (CJ) mRNA; type: cell-based; settings: Homo sapiens, read-out: Target C CJ IC50
Experimental: Compounds described herein were used to modulate RNA transcript abundance in cells. The expression of a target mRNA was measured by detecting the formation of an exon-exon junction in the canonical transcript (CJ). A compound mediated exon-inclusion event was detected by observing an increase in formation of a new junction with an alternative exon (AJ). Real-time qPCR assays were used to detect these splicing switches and interrogate the potency of various compounds towards different target genes. A high-throughput real time quantitative PCR (RT-qPCR) assay was developed to measure these two isoforms of the mRNA (CJ and AJ) for exemplary genes, such as HTT, SMN2, and MYB, together with a control housekeeping gene, GAPDH or GUSB or PPIA, used for normalization. Briefly, the A673 or K562 cell line was treated with various compounds described herein (e.g., compounds of Formula (I)). After treatment, the levels of the HTT, MYB, or SMN2 mRNA targets were determined from each sample of cell lysate by cDNA synthesis followed by qPCR.
The A673 cell line was cultured in DMEM with 10% FBS. Cells were diluted with full growth media and plated in a 96-well plate (15,000 cells in 100 ul media per well). The plate was incubated at 37° C. with 5% CO2 for 24 hours to allow cells to adhere. An 11-point 3-fold serial dilution of the compounds was made in DMSO then diluted in media in an intermediate plate. Compounds were transferred from the intermediate plate to the cell plate with the top dose at a final concentration of 10 uM in the well. Final DMSO concentration was kept at or below 0.25%. The cell plate was returned to the incubator at 37° C. with 5% CO2 for an additional 24 hours.
The K562 cell line was cultured in IMDM with 10% FBS. For K562, cells were diluted with full growth media and plated in either a 96-well plate (50,000 cells in 50 uL media per well) or a 384-well plate (8,000-40,000 cells in 45 uL media per well). An 11-point 3-fold serial dilution of the compounds were made in DMSO then diluted in media in an intermediate plate. Compound was transferred from the intermediate plate to the cell plate with the top dose at a final concentration of 10 uM in the well. Final DMSO concentration was kept at or below 0.25%. Final volume was 100 uL for 96-well plate and 50 uL for 384-well plate. The cell plate was then placed in an incubator at 37° C. with 5% CO2 for 24 hours.
The cells were then gently washed with 50 uL-100 uL cold PBS before proceeding to addition of lysis buffer. 30 uL-50 μL of room temperature lysis buffer with DNAse I (and optionally RNAsin) was added to each well. Cells were shaken/mixed thoroughly at room temperature for 5-10 minutes for lysis to take place and then 3 uL-5 μL of room temperature stop solution was added and wells were shaken/mixed again. After 2-5 minutes, the cell lysate plate was transferred to ice for RT-qPCR reaction setup. The lysates could also be frozen at −80° C. for later use.
In some cases, a direct lysis buffer was used. An appropriate volume of 3× lysis buffer (10 mM Tris, 150 mM NaCl, 1.5%-2.5% Igepal and 0.1-1 U/uL RNAsin, pH 7.4) was directly added to either K562 or A673 cells in media and mixed by pipetting 3 times. The plates were then incubated at room temperature with shaking/rocking for 20-50 minutes to allow for lysis to take place. After this time, the cell lysate plate was transferred to ice to set up for the RT-qPCR reactions. The lysates could also be frozen at −80° C. for later use.
To set up 10 uL RT-qPCR reactions, cell lysates were transferred to 384-well qPCR plates containing the master mix according to the table below. The plates were sealed, gently vortexed, and spun down before the run. The volumes were adjusted accordingly in some instances where the reaction was carried in 20 μL. The table below summarizes the components of the RT-qPCR reactions:
The RT-qPCR reaction was performed using a QuantStudio (ThermoFisher) under the following fast cycling conditions. […]

[1] = test system: HiBiT-tagged HTT protein in K562 cells; experiment: HiBit protein abundance assay, HTT; type: cell-based, human; settings: K562 HiBiT-modified cells, 24 hours, luminescence
Experimental: Compounds described herein were used to screen for effects on quantitative protein abundance using a HiBit assay system (Promega). Quantitative protein abundance was determined by measuring the protein levels of HiBit-tagged protein targets expressed in cell culture via luminescence using the Nano-Glo HiBiT Lytic Detection System, which uses a split complementation assay format to reconstitute NanoBiT enzyme to generate a luminescent signal. A protein abundance assay was developed such that endogenous protein targets could be modified with the HiBiT peptide tag and their abundance could be assessed after compound treatment. Briefly, K562 cell lines containing a HiBiT-modification were treated with various compounds described herein (e.g., compounds of Formulas (I), (II), or (III)). After treatment for 24 hours, the protein abundance of a specific target was determined by measuring luminescence. • Promega Nano-Glo HiBiT Lytic Detection System (cat #N3030) • Corning 384-well TC-treated microplates (cat #3570) • Synthego Engineered Cells Knock-In Clones [table] Cells were maintained in IMDM with 10% FBS. Before the assay, cells were diluted with phenolphthalein-free growth media (IMDM+1% FBS media) and were seeded in a 384-well plate at a density of 10000 cells/well (for each cell line listed in Table 6). Each compound was prepared as a 10-point 3-fold serial dilution in DMSO with the top dose at a final concentration of 10 μM in the well. Unmodified K562 cells were added at the previously specified density with DMSO to serve as an assay baseline and positive control (PC) and DMSO only with the respective modified cell lines was added to the negative control (NC) columns. Final DMSO concentration was kept at or below 0.25%. Treated cell plates were placed in an incubator at 37° C. with 5% CO2 for 24 hours. After 24 hours, 25 μL of Complete HiBit Lytic reagent was added to each well at room temperature (e.g. one plate requiring 10 mL Lytic Buffer, 100 μL LgBiT Protein, 200 μL Lytic Substrate), shaken for 5 minutes at 600 RPM, then left to sit for 10 minutes for signal to stabilize before reading on a Spark Cyto plate reader (Tecan) with a 500 ms measurement time. To determine compound effects on protein abundance of each target in Table 6, the percent response for each respective cell line was calculated at each compound concentration as follows: For the normalized response at each concentration, a four-parameter logistical regression was fit to the data and the response was interpolated at the 50% value to determine a concentration for protein abundance at 50% (IC50) the untreated control.

[2] = decrease in CJ mRNA levels, larger panel of genes, Table 3

Row | IC50 (Target C; [2]) [nM] | IC50 [1] [nM] | SMILES | IC50 (Target C) [nM]
1 | > 10000 | 1000 to 10000 | Cc1cn2nc(-n3cc4cc(C5CCNCC5)cc(F)c4n3)cc(C)c2n1 [Compound 120, 6-[7-fluoro-5-(4-piperidyl)indazol-2-yl]-2,8-dimethyl-imidazo[1,2-b]pyridazine] | 
2 | > 10000 | > 10000 | Cc1cc(-n2cc3cc(N4CCNCC4)ccc3n2)cc2cn(C)nc12 [Compound 121, 2,7-dimethyl-5-(5-piperazin-1-ylindazol-2-yl)indazole] | 
3 | 1000 to 10000 | 100 to 1000 | Cc1nc2c(C)c(O)c(-c3cc(F)c4nn(C5CCNCC5)cc4c3)cc2o1 [Compound 123, 6-[7-fluoro-2-(4-piperidyl)indazol-5-yl]-2,4-dimethyl-1,3-benzoxazol-5-ol] | 
4 | 100 to 1000 | < 100 | Cc1cn2nc(-c3cc(F)c4nn(C5CCNCC5)cc4c3)cc2c(C)n1 [Compound 124, 2-[7-fluoro-2-(4-piperidyl)indazol-5-yl]-4,6-dimethyl-pyrazolo[1,5-a]pyrazine] | 
5 | 100 to 1000 | < 100 | Cc1cn2cc(-c3cc(F)c4nn(C5CCNCC5)cc4c3)cc(C)c2n1 [Compound 125, 5-(2,8-dimethylimidazo[1,2-a]pyridin-6-yl)-7-fluoro-2-(4-piperidyl)indazole] | 
6 | 1000 to 10000 | 1000 to 10000 | Cc1c(O)c(-c2cc(F)c3nn(C4CCNCC4)cc3c2)cc2cn(C)nc12 [Compound 126, 5-[7-fluoro-2-(4-piperidyl)indazol-5-yl]-2,7-dimethyl-indazol-6-ol] | 
7 | 100 to 1000 | < 100 | Cc1cn2cc(-c3cc(F)c4nn(C5CCNCC5)cc4c3)cc(Cl)c2n1 [Compound 127, 5-(8-chloro-2-methylimidazo[1,2-a]pyridin-6-yl)-7-fluoro-2-(piperidin-4-yl)-2H-indazole hydrochloride salt] | 
8 | 100 to 1000 | < 100 | Cc1cn2cc(-c3cc(F)c4nn(C5CCNCC5)cc4c3)cc(F)c2n1 [Compound 129, 7-fluoro-5-(8-fluoro-2-methylimidazo[1,2-a]pyridin-6-yl)-2-(piperidin-4-yl)-2H-indazole] | 
9 | 100 to 1000 | < 100 | Cn1cc2cc(-c3cc(F)c4nn(C5CCNCC5)cc4c3)cc(C#N)c2n1 [Compound 130, 5-[7-fluoro-2-(4-piperidyl)indazol-5-yl]-2-methyl-indazole-7-carbonitrile] | 
10 | 100 to 1000 |  | Cc1cn2nc(-c3cc(F)c4nn(CC5CCNCC5)cc4c3)cc(C)c2n1 [Compound 212, 6-[7-fluoro-2-(4-piperidylmethyl)indazol-5-yl]-2,8-dimethyl-imidazo[1,2-b]pyridazine] | 

Further lines, the compound ahead of its results:

Row | SMILES | IC50 (Target C; [2]) [nM] | IC50 [1] [nM] | IC50 (Target C) [nM]
11 | Cn1cc2cc(-c3cc(F)c4nn(C5CCNCC5)nc4c3)cc(F)c2n1 [Compound 103, 4-fluoro-6-(7-fluoro-2-methyl-indazol-5-yl)-2-(4-piperidyl) benzotriazole] | 1000 to 10000 | 100 to 1000 | 
12 | CCN1CCC(n2cc3cc(-c4cc(F)c5nn(C)cc5c4)cc(F)c3n2)CC1 [Compound 104, 2-(1-ethyl-4-piperidyl)-7-fluoro-5-(7-fluoro-2-methyl-indazol-5-yl)indazole] | 1000 to 10000 | 100 to 1000 | 
13 | Cn1cc2cc(-c3ccc4nn(C5CCNCC5)cc4c3)cc(F)c2n1 [Compound 105, 7-fluoro-2-methyl-5-[2-(4-piperidyl)indazol-5-yl]indazole] | 100 to 1000 | 100 to 1000 | 
14 | Cn1cc2cc(-c3ccc4nn(C5CCNCC5)cc4n3)c(O)c(F)c2n1 [Compound 107, 7-fluoro-2-methyl-5-[2-(4-piperidyl)pyrazolo [4,3-b]pyridin-5-yl]indazol-6-ol] | 100 to 1000 | 100 to 1000 | 
15 | Cn1cc2cc(-c3cc(F)c4nn(C5CCNC6(CC6)C5)cc4c3)cc(F)c2n1 (stereo not shown) [Compound 108, 2-(4-azaspiro[2.5]octan-7-yl)-7-fluoro-5-(7-fluoro-2-methyl-indazol-5-yl)indazole] | 1000 to 10000 | 100 to 1000 | 
16 | Cc1c(O)c(-c2ccc3nn(C4CCNCC4)cc3n2)cc2cn(C)nc12 [Compound 109, 2,7-dimethyl-5-[2-(4-piperidyl)pyrazolo[4,3-b]pyridin-5-yl]indazol-6-ol] | 100 to 1000 | < 100 | 
17 | Cn1cc2cc(-c3ccc4nn(C5CCNCC5)cc4n3)c(O)cc2n1 [Compound 110, 2-methyl-5-[2-(4-piperidyl)pyrazolo[4,3-b]pyridin-5-yl]indazol-6-ol] | 1000 to 10000 | 100 to 1000 | 
18 | Cc1c(O)c(-c2ccc3nn(C4CCNCC4)nc3n2)cc2cn(C)nc12 [Compound 113, 2,7-dimethyl-5-[2-(4-piperidyl)triazolo[4,5-b]pyridin-5-yl]indazol-6-ol] | > 10000 | 1000 to 10000 | 
19 | Cc1cc(-n2cc3cc(C4CCNCC4)cc(F)c3n2)cc2cn(C)nc12 [Compound 115, 2-(2,7-dimethylindazol-5-yl)-7-fluoro-5-(4-piperidyl)indazole] | 1000 to 10000 | 1000 to 10000 | 
20 | Cc1cc(-n2cc3cc(N4CCNCC4)cc(F)c3n2)cc2cn(C)nc12 [Compound 117, 2-(2,7-dimethylindazol-5-yl)-7-fluoro-5-piperazin-1-yl-indazole] | > 10000 | 1000 to 10000 | 
21 | Cc1nc2c(C)cc(-n3cc4cc(N5CCNCC5)cc(F)c4n3)cc2o1 [Compound 119, 6-(7-fluoro-5-piperazin-1-yl-indazol-2-yl)-2,4-dimethyl-1,3-benzoxazole] | > 10000 | > 10000 | 
22 | Cc1cn2nc(-c3cc(F)c4nn(C5CCNCC5)cc4c3)cc(C)c2n1 [Compound 122, 6-(7-fluoro-2-(piperidin-4-yl)-2H-indazol-5-yl)-2,8-dimethylimidazo [1,2-b]pyridazine hydrochloride salt] |  | < 100 | < 100
